Assay [1] deals with K652. The assay can be described thus: Inhibition of P-gp-mediated rhodamine 123 efflux in doxorubicin-resistant human […] cells at 100 uM treated for 1 hr measured after washout by FACS flow cytometry relative to verapamil. It counts as cell-based.
The nature of assay [2]: Competitive inhibition of P-gp assessed as P-gp-associated ATPase activity at 10 uM by Pgp-GloTM Assay.
The nature of assay [3]: Noncompetitive inhibition of P-gp assessed as reduction in P-gp-associated ATPase activity by Pgp-GloTM Assay.

The values that follow come from ChEMBL document CHEMBL2034976, “Relationship between structure and P-glycoprotein inhibitory activity of dimeric peptides related to the Dmt-Tic pharmacophore” (Bioorg Med Chem Lett, 2012).

The source made the active and inactive calls. The calls are words filed in the database; no cut-off is given here.

Regarding `CN(C)[C@@H](CC(C)(C)C)C(=O)N1Cc2ccccc2C[C@H]1C(=O)NCCCC[C@@H](NC(=O)[C@@H]1Cc2ccccc2CN1C(=O)[C@H](CC(C)(C)C)N(C)C)C(N)=O`, the fold change (FC) in assay [1] came out at 2.

In assay [1], `CN(C)[C@@H](CC(C)(C)C)C(=O)N1Cc2ccccc2C[C@H]1C(=O)NCCCC[C@H](NC(=O)[C@@H]1Cc2ccccc2CN1C(=O)[C@H](CC(C)(C)C)N(C)C)C(N)=O` came in with a fold change (FC) of 2. Further, the inhibition entry in assay [2] and in assay [3] was “Active” in each case.
